# Several values for one entry are separate records, joined by “and”; a condition that tells them apart may be missing. Identical values can stand only once.
# Assays:
# [1] = molecular target: T1, human serum albumin (HSA) (Homo sapiens, UniProt P02768); experiment: HSA binding by biochromatography (HSA column); format: in vitro ADME; conditions: HSA column
# T1 construct: purchased
# Experimental: (§1) Lipophilicity and affinity for phospholipids for each investigated molecule were assessed. Additionally, selected compounds with the highest biological activities have been characterized by their affinity plasma proteins. All experiments were performed using protocols developed by Valko.[35] These methods facilitated the calculation of chromatographic hydrophobicity indices (CHI) and plasma protein binding percentages (%PPB) in a biochromatographic experiment, with results compared to the reference. A detailed description of the experiments is provided in the Supporting Information (SI), along with the raw data. […] Although high lipophilicity may limit the medical use of the analyzed compounds since they may tend to accumulate excessively in the human body, it is remarkable that several clinically used drugs also have high lipophilicity. […] (Table 5).
# (§2) The detailed procedure is presented in previous publications.[53] High-performance liquid chromatography (HPLC) analyses were conducted using the Prominence-1 LC-2030C 3D system (Shimadzu) with a DAD detector, employing three different chromatographic columns with specific stationary phases and mobile phases. The analysis was performed at 30 °C with a flow rate of 1.5 mL/min for IAM and C18 columns, and 0.9 mL/min for the Chiralpak column. Calibration standards for the columns were sourced from various suppliers and dissolved in dimethyl sulfoxide. Detection occurred in the UV range (190–300 nm) with a 5 μL injection volume. Each compound was analyzed in triplicate. Retention times for the tested compounds and calibration standards are provided in the Supporting Information (Tables S1 and S2).
# [2] = system: AsPC-1 pancreatic cancer cells; experiment: Antiproliferative activity (MTS), AsPC-1; format: cell-based, human; conditions: Homo sapiens, ASPC1; MTS assay, 72 h
# Experimental: (§3) The chosen group of ligands was further examined for their ability to inhibit proliferation across multiple cancer cell lines related to the CNS system (1321N1, U87MG, LN-229, and U-251). These cell lines were characterized by different mutation profiles, the main one being the variable status of the p53 protein. In detail, U87MG cells have a wild-type p53 protein, while astrocytoma and the rest of GBM cells harbor mutated p53 protein. Additional assays were performed on MCF7 breast cancer and AsPC-1 pancreatic cancer cells. The wide range of tested lines was aimed at screening the anticancer potential of the tested compounds. The first represents one of the most common and the second one of the most aggressive cancers in the world. Comparing the activity of compounds on GBM cells to other types of cancer may reveal their selectivity and usefulness in targeted therapies. The cytotoxicity of the compounds on normal human astrocytes (NHA) and Feline catus astrocyte (PG-4) was determined. Tests on normal lines serve to verify the potential toxicity of the tested compounds on healthy cells. Due to the targeting of CNS tumors, astrocytes were selected as normal lines.
# The detailed procedure is presented in previous publications.[53] Briefly, the study utilized various human cancer and normal cell lines, including LN-229 (glioblastoma), MCF7 (breast carcinoma), HepG2 (hepatoma), U-251 (glioblastoma), U87MG (glioblastoma), AsPC-1 (pancreatic adenocarcinoma), and NHA (normal human astrocytes). Cells were cultured in appropriate media, supplemented with FBS, antibiotics, and other supplements, and incubated at 37 °C with 5% CO2. Compounds were dissolved in DMSO, prepared at various concentrations (1–25 μM), and applied to the cells for 72 h. Cell viability was assessed using the MTS assay, and the inhibitory concentration (IC50) was calculated using GraphPad Prism 8.0. Each compound was tested in triplicate across multiple experiments.
# 5-HT6 = molecular target: T2, 5-HT6 (Homo sapiens, UniProt P50406); experiment: Functional cAMP assay (LANCE Ultra), 5-HT6; format: cell-based; conditions: for function at 5-HT6: in words; for Kb: Table 3, unit inferred, cAMP, antagonist mode, 5-CT
# T2 construct: expressed in transfected cells; host or cells: HEK293
# T2 sequence (P50406 whole entry): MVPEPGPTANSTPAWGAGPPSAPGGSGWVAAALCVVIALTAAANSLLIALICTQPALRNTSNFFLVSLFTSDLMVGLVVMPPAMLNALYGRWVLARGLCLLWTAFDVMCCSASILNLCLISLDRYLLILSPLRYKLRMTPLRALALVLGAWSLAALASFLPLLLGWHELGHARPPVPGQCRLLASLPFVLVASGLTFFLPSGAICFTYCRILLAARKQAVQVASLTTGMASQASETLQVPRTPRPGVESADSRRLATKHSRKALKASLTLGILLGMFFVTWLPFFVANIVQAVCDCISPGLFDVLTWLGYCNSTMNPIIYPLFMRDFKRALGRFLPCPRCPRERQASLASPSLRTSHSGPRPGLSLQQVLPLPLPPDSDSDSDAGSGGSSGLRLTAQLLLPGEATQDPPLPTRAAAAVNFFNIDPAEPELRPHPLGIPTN
# Experimental: (§4) Their functional activity was also evaluated by assessing their ability to inhibit agonist-induced cAMP production in HEK293 cells (Table 3). Extended radioisotope tests were aimed at detecting potential affinity for other aminergic receptors, whose role in cancer treatment may be important. Functions were tested for all receptors. The essence of functional tests results from the fact that serotonin stimulates tumor progression. Therefore, the ligand should have the potential to reduce its concentration, i.e., act as an antagonist.[39]
# The detailed procedure is presented in previous publications.[53] The functional activity of the compounds was assessed using the LANCE Ultra cAMP detection kit (PerkinElmer). […] For other receptors (5-HT7R, 5-HT1AR, and 5-HT6R), 5-CT was used at 10, 100, and 1000 nM, respectively. Each compound was tested in triplicate across eight concentrations. The inhibitory constant (Kb) for each antagonist was calculated using the Cheng–Prusoff equation.
# 5-HT5A = 5-HT5A (Homo sapiens, UniProt P47898); experiment: Radioligand binding assay, 5-HT5A ([3H]-LSD); conditions: Table 3, unit inferred; 3.5 nM [3H]-LSD
# Chain of 5-HT5A (P47898 whole entry, species assumed): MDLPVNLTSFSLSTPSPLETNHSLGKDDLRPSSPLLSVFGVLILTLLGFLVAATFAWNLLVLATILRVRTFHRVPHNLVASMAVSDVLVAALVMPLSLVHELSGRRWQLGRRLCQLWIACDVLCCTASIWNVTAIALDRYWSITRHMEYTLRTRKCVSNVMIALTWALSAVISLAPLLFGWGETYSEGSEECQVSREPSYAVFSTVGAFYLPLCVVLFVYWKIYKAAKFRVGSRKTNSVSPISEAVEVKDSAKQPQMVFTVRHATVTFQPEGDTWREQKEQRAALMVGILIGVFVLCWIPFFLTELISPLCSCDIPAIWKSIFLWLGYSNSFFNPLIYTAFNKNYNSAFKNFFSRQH
# Experimental: as §4
# (§5) The detailed procedure is presented in previous publications.[53] Assays were performed by incubating for 1 h at 37 °C (room temperature for 5-HT1A) in 200 μL volumes on 96-well plates. The reaction was terminated by rapid filtration using Unifilter plates, and radioactivity on the filters was measured with a PerkinElmer Microbeta plate reader. Radioligands used were:
# (§6) Eight concentrations (10^–4 to 10^–11 M) were tested in triplicate for each compound. Inhibition constants (Ki) were calculated using the Cheng–Prusoff equation.[54] The results are expressed as the means of at least two independent experiments.
# D2 = molecular target: T3, D2 (Homo sapiens, UniProt P14416); experiment: Radioligand binding assay, D2 ([3H]-raclopride); conditions: Table 3, unit inferred; 2.5 nM [3H]-raclopride
# T3 construct: expressed in transfected cells; host or cells: HEK293
# T3 sequence (P14416 whole entry): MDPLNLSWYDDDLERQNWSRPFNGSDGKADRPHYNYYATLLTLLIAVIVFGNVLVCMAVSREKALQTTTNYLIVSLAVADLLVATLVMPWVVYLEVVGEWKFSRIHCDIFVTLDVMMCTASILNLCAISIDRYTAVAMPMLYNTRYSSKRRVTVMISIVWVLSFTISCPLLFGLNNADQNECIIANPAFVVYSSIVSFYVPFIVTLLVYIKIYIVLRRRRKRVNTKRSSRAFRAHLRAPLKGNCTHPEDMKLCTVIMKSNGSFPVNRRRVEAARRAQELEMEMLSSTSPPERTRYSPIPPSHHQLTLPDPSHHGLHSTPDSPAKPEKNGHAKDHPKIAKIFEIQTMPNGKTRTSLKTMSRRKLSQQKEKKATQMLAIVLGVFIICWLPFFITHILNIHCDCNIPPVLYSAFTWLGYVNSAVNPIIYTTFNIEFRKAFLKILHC
# Experimental: as §4, §5
# D2: 2.5 nM [^3H]-raclopride
# as §6
# U87MG glioblastoma cells = experiment: Antiproliferative activity (MTS), U87MG; format: cell-based, human; conditions: Homo sapiens, U-87 MG; MTS assay
# Experimental: as §3, with “These” for “The chosen group of ligands was further examined for their ability to inhibit proliferation across multiple cancer cell lines related to the CNS system (1321N1, U87MG, LN-229, and U-251). These”
# The detailed procedure is presented in previous publications.[53] […] Cells were cultured in appropriate media, supplemented with FBS, antibiotics, and other supplements, and incubated at 37 °C with 5% CO2. […] Cell viability was assessed using the MTS assay, and the inhibitory concentration (IC50) was calculated using GraphPad Prism 8.0. Each compound was tested in triplicate across multiple experiments.
# Supplementary materials - Biological research
# B) U87MG glioblastoma multiforme line.
# and U87MG glioblastoma multiforme line for C) PP 3; D) PP 6; E) PP 8; F) PP 10; G) PP 11; H) PP
# [3] = Affinity to phospholipids, CHI IAM (Valko protocol); format: physicochemical; conditions: IAM column
# Experimental: as §1, §2
# T1 sequence (P02768 25-609): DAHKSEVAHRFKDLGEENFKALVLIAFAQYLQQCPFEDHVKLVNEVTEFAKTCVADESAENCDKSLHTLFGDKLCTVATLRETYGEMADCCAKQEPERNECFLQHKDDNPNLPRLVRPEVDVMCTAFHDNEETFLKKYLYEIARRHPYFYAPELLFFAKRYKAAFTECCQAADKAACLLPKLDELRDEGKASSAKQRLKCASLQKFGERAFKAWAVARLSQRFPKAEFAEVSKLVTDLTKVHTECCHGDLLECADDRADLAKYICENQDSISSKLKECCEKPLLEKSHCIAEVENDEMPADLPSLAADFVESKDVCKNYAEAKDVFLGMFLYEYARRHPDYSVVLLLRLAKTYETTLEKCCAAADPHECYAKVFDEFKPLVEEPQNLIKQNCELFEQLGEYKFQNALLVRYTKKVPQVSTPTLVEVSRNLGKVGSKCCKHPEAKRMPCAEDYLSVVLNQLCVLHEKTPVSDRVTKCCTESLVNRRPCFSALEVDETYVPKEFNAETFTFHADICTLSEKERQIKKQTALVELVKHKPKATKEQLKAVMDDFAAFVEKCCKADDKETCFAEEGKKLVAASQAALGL
Structure (SMILES),%HSA [1],logKHSA [1],IC50 [2],function at 5-HT6 (5-HT6),Ki (5-HT5A),Ki (D2),IC50 (U87MG glioblastoma cells),CHI IAM [3],Kb (5-HT6)
"O=S(=O)(c1cccc2ccccc12)N1CCN(CCNC2=Nc3ccccc3CN2)CC1 [PP 6, N-{2-[4-(Naphthalene-1-sulfonyl)piperazin-1-yl]ethyl}-3,4-dihydroquinazolin-2-amine]",97.2%,1.41 and 1.4,> 25 µM,agonist,0.328 µM,7.43 µM,> 25 µM,50.9,–
"CC1NC(NCCCCCCNS(=O)(=O)c2cccc3ccccc23)=Nc2ccccc21 (stereo not shown) [PP 10, N-{6-[(4-Methyl-3,4-dihydroquinazolin-2-yl)amino]hexyl}naphthalene-1-sulfonamide]",97.7%,1.47 and 1.5,> 25 µM,antagonist,0.059 µM,2.93 µM,20.7 ± 1.2 µM,56.4,0.036 µM
"CC1NC(NCCCCCCNS(=O)(=O)c2c(Cl)ccc3ccccc23)=Nc2ccccc21 (stereo not shown) [PP 13, 2-Chloro-N-{6-[(4-methyl-3,4-dihydroquinazolin-2-yl)amino]hexyl}naphthalene-1-sulfonamide]",>99.8%,–,14.6 ± 0.5 µM,agonist,–,1.9 µM,13.6 ± 1.1 µM,59.9,–
"O=S(=O)(NCCCCCCNc1ncc2ccccc2n1)c1cccc2ccccc12 [PP 15, N-{6-[(Quinazolin-2-yl)amino]hexyl}naphthalene-1-sulfonamide]",97.8%,1.48 and 1.5,> 25 µM,antagonist,1.09 µM,71.8 µM,> 25 µM,45.8,0.048 µM
"O=S1(=O)c2cccc3cccc(c23)N1CCCCCCNC1=Nc2ccccc2CN1 [PP 24, 3-{6-[(3,4-Dihydroquinazolin-2-yl)amino]hexyl}-2λ^6-thia-3-azatricyclo[6.3.1.0^4,^12]dodeca-1(11),4(12),5,7,9-pentaene-2,2-dione]",98.8%,1.65 and 1.6,12.1 ± 1 µM,–,–,–,13.6 ± 0.6 µM,56.5,–
